Measurements published in patent US5202349A, “Substituted phenylacetylenes, pharmaceutical compositions containing these compounds and processes for the preparation of these compounds and compositions” (Gruenenthal GmbH, priority 1990, dated 1993).

Tests used:
cyclooxygenase = target: T1, cyclooxygenase (Ovis aries, UniProt P05979); assay: Inhibition of cyclooxygenase in sheep seminal vesicle microsomes ([14C]-arachidonic acid, TLC); format: biochemical; conditions: pH 7.0, read-out: IC50 for inhibition of cyclooxygenase (B)
T1 construct: suspension of sheep seminal vesicle microsomes; from tissue; host or cells: sheep seminal vesicle microsomes
T1 sequence (P05979 25-600): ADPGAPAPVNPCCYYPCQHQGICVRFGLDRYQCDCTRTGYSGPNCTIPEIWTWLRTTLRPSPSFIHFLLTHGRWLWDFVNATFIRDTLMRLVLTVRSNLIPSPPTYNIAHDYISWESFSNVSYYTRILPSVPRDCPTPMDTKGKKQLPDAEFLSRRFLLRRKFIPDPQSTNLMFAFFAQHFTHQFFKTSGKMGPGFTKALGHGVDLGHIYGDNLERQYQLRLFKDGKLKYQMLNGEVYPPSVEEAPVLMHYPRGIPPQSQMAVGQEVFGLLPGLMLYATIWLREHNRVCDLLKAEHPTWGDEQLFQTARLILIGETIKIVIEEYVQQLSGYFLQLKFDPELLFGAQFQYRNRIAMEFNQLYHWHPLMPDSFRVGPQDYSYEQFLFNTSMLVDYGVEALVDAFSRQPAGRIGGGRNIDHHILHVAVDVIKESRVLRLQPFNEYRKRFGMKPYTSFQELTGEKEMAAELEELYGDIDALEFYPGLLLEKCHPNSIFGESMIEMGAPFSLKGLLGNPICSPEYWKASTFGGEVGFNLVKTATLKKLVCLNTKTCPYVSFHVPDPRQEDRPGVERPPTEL
Experimental: The effect of the test compounds on the activity of cyclooxygenase was tested using a suspension of sheep seminal vesicle microsomes in 50 mM potassium phosphate buffer of pH 7.0 which was incubated with the solvent only (as control) or with the test compound and [^14 C]-arachidonic acid. The "IC50 -values (B)" (i.e. the concentration of the test compound which causes an 50%-inhibition of the cyclooxygenase) were determined by thin layer chromatography and by means of a TLC-Linear-Analyzer.

[1] = system: ex vivo iLTB4-formation (5-lipoxygenase activity) in whole blood of rats; assay: Inhibition of ex vivo iLTB4-formation in rat whole blood after oral administration; set-up: species or system male rats (Wistar strain); conditions: Rattus norvegicus, 21.5 mg/kg oral, blood taken 1 hour later
Experimental: The bioavailability of the compounds of formula I after oral administration was characterized by means of an ex vivo biochemical assessment method described by Tateson et al. in Brit. Pharmacol., 94, 528 (1988).
Compounds of formula I were orally administered to male rats (Wistar strain). 1 hour later the rats were bled by heart puncture in letal CO2 -narcosis. The 5-lipoxygenase reaction was triggered by the addition of the calcium-ionophor A23187 to an end concentration of […] to aliquots of rat whole blood and subsequent incubation for 30 minutes at 37° C. in a water bath. At the end of the incubation the samples were centrifuged to collect the cell free plasma. The concentration of the immunoreactive LTB4 (iLTB4 ng/ml) in each plasma sample was determined by a LTB4 -radioimmunoassay (^3 H-LTB4 -RIA, Amersham) by means of a LTB4 -standard curve in diluted rat plasma. For calculation of the percent inhibition of ex vivo iLTB4 -formation in whole blood of rats treated with the compounds of formula I rats treated with appropiate vehicle solution were included in all experiments, aliquots of their blood were run in parallel and were processed in the same way as described. The mean iLTB4 -formation per ml plasma of these vehicle treated control rats served as 100 percent value of normal control 5-lipoxygenase activity. The percent inhibition of the ex vivo iLTB4 -formation after oral administration of compounds of formula I was calculated as follows: 100 minus 100 times the quotient of the mean iLTB4 concentration per ml plasma of the rats treated with compounds of formula I […] and the mean iLTB4 concentration per ml plasma of the control rats.

5-lipoxygenase = target: T2, 5-lipoxygenase (Rattus norvegicus, UniProt P12527); assay: Inhibition of 5-lipoxygenase in rat basophilic leukemia cells ([14C]-arachidonic acid, TLC); format: cell-based; conditions: for IC50: rat basophilic leukemia cells, standardized to nordihydroguaiaretic acid; for Quotient (IC50 cyclooxygenase (B) / 5-lipoxygenase (A)): selectivity
T2 construct: endogenous in cells; host or cells: rat basophilic leukemia cells
T2 sequence (P12527 1-673): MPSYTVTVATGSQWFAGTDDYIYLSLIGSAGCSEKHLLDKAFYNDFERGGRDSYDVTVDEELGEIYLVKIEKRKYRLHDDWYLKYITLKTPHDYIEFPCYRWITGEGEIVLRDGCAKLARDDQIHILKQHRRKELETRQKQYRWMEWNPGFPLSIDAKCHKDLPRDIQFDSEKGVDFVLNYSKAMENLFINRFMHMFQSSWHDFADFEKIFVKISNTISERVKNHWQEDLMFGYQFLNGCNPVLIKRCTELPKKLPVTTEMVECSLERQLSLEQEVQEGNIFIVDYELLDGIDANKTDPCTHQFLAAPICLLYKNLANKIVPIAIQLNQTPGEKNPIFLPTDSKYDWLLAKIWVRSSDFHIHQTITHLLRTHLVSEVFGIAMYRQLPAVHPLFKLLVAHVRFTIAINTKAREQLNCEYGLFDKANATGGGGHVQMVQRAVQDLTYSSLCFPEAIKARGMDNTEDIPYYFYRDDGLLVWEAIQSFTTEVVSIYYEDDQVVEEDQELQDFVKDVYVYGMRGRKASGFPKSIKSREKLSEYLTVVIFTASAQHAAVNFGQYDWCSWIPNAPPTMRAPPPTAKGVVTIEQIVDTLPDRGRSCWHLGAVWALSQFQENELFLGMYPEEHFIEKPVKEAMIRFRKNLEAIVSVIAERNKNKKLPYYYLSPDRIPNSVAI
Experimental: To 1 ml each of this suspension there was added indomethacin (10 μM) and calcium chlorid (2 mM) and then the mixture was incubated in presence or absence of a test compound for 3 minutes and thereafter with 20 μM of [^14 C]-arachidonic acid and 20 μM of the calcium ionophore A 23 187 for 10 minutes. The reaction was stopped by adding 20 μl of glacial acetic acid and then the mixture was extracted with ethyl acetate to isolate the metabolites of arachidonic acid formed by the enzymatic action of 5-lipoxygenase. These were separated by thin layer chromatography using a solvent mixture known to be suitable for leukotriene analysis [c.f. Jakschik et al., Biochem. Biophys. Res. Commun. 102, 624 (1981)]. The distribution of the radioactivity to the different metabolites was measured using a TLC Linear Analyzer. By bringing into relationship the percentages of the amount of the products formed under the action of 5-lipoxygenase (5-HETE, isomers of LTB4) in the controls (tests performed in absence of test compounds) and in the presence of test compounds of formula I in different concentrations the "IC50 -value" (i.e. the concentration of the test compound which causes an 50%-inhibition of the 5-lipoxygenase) is determined. For standardization these values then were brought into relationship to the IC50 -values determined in the same manner for the standard compound nordihydroguaiaretic acid.

[2] = system: endotoxin/galactosamine-induced hepatitis, increase of liver specific enzymes in the serum; assay: Endotoxin/galactosamine-induced hepatitis in mice (septic shock model); format: in vivo; conditions: 10 mg/kg i.p. for each of five applications, 8 hours after endotoxin
Experimental: As a test model to evaluate the effects of test compounds in septic shock the endotoxin/galactosamine-induced hepatitis in mice has been used. […] The intraperitoneal application of 5-lipoxygenase inhibitors 30 minutes before, simultaneously with and 2, 4 and 6 hours after the application of endotoxin inhibitis the hepatitis-induced increase of the serum activities of these enzymes. On administration of compounds of the formula I in doses of 10 mg/kg for each of the five applications the following percentual inhibitions of the increase of the enzymes GPT and SDH were achieved (the increase of enzymatic activities in control animals was set at 100%): […]

| SMILES | IC50 (cyclooxygenase) | inhibition in vivo at 21.5 mg/kg [1] | IC50 (5-lipoxygenase) | Quotient (IC50 cyclooxygenase (B) / 5-lipoxygenase (A)) (5-lipoxygenase) | Inhibition of increase of GPT [2] | Inhibition of increase of SDH [2] |
| --- | --- | --- | --- | --- | --- | --- |
| COc1ccc(C#Cc2cccc(C(C)N(O)C(N)=O)c2)cc1OC (stereo not drawn) [Example 10b, N-Hydroxy-N-{1-[3-(3,4-dimethoxy-phenylethynyl)-phenyl]-ethyl}-urea] | > 500000 nM | 86% | 690 nM | > 725 | – | – |
| NC(=O)N(O)Cc1ccc(C#Cc2cccs2)cc1 [Example 16d, N-Hydroxy-N-[4-(thien-2-yl-ethynyl)-benzyl]-urea] | 500000 nM | – | 370 nM | 1351 | – | – |
| NC(=O)N(O)Cc1ccc(C#Cc2ccsc2)cc1 [Example 16f, N-Hydroxy-N-[4-(thien-3-yl-ethynyl)-benzyl]-urea] | 500000 nM | 97% | 410 nM | 1220 | – | – |
| COc1ccc(C#Cc2cccc(CN(O)C(N)=O)c2)cc1 [Example 10n, N-Hydroxy-N-[3-(4-methoxyphenylethynyl)-benzyl]-urea] | > 500000 nM | – | 180 nM | > 2778 | – | – |
| COc1ccc(C#Cc2cccc(C(C)N(O)C(C)=O)c2)cc1OC (stereo not drawn) [Example 5b, N-{1-[3-(3,4-Dimethoxy-phenylethynyl)-phenyl]-ethyl}-acetohydroxamic acid] | > 500000 nM | – | 280 nM | > 1786 | – | – |
| NC(=O)N(O)Cc1cccc(C#Cc2ccc(Cl)cc2)c1 [Example 10m, N-Hydroxy-N-[3-(4-chlorophenylethynyl)-benzyl]-urea] | > 500000 nM | – | 260 nM | > 1923 | – | – |
| CC(=O)N(O)C(C)c1ccc(C#Cc2ccccc2)cc1 (stereo not drawn) [Example 2a, N-{1-[4-(Phenylethynyl)-phenyl]-ethyl}-acetohydroxamic acid] | – | 76% | – | – | – | – |
| CC(=O)N(O)Cc1cccc(C#Cc2ccc(C(C)C)cc2)c1 [Example 5e, N-[3-(4-Isopropyl-phenylethynyl)-benzyl]-acetohydroxamic acid] | – | 82% | – | – | – | – |
| COc1cccc(C#Cc2cccc(C(C)N(O)C(C)=O)c2)c1 (stereo not drawn) [Example 5c, N-{1-[3-(3-Methoxy-phenylethynyl)-phenyl]-ethyl}-acetohydroxamic acid] | > 500000 nM | 88% | 580 nM | > 862 | – | – |
| CC(=O)N(O)C(C)c1cccc(C#Cc2ccc(Cl)cc2)c1 (stereo not drawn) [Example 12, N-{1-[3-(4-Chloro-phenylethynyl)-phenyl]-ethyl}-acetohydroxamic acid] | – | 87% | – | – | – | – |
| CC(c1ccc(C#Cc2cccs2)cc1)N(O)C(N)=O (stereo not drawn) [Example 15, N-Hydroxy-N-{1-[4-(thien-2-yl-ethynyl)-phenyl]-ethyl}-urea] | 500000 nM | 77% | 410 nM | 1220 | – | – |
| CC(c1ccc(C#Cc2ccsc2)cc1)N(O)C(N)=O (stereo not drawn) [Example 16b, N-Hydroxy-N-{1-[4-(thien-3-yl-ethynyl)-phenyl]-ethyl}-urea] | 500000 nM | 91% | 290 nM | 1724 | – | – |
| CC(c1cccc(C#Cc2ccc(Cl)cc2)c1)N(O)C(N)=O (stereo not drawn) [Example 10d, N-Hydroxy-N-{1-[3-(4-chloro-phenylethynyl)-phenyl]-ethyl}-urea] | 500000 nM | 99% | 550 nM | 909 | – | – |
| CC(c1cccc(C#Cc2ccc(C(F)(F)F)cc2)c1)N(O)C(N)=O (stereo not drawn) [Example 11, N-Hydroxy-N-{1-[3-(4-trifluoromethyl-phenylethynyl)-phenyl]-ethyl}-urea] | > 500000 nM | 76% | 670 nM | > 746 | – | – |
| CC(C)c1ccc(C#Cc2cccc(CN(O)C(N)=O)c2)cc1 [Example 10e] | – | 81% | – | – | – | – |
| NC(=O)N(O)Cc1cccc(C#Cc2cccc3ccccc23)c1 [Example 7, N-Hydroxy-N-[-3-(naphth-1-yl-ethynyl)-benzyl]-urea] | > 500000 nM | 90% | 650 nM | > 769 | – | – |
| COc1cccc(C#Cc2cccc(C(C)N(O)C(N)=O)c2)c1 (stereo not drawn) [Example 10c, N-Hydroxy-N-{1-[3-(3-methoxy-phenylethynyl)-phenyl]-ethyl}-urea] | > 500000 nM | – | 270 nM | > 1852 | – | – |
| CC(c1cccc(C#Cc2ccc(F)cc2)c1)N(O)C(N)=O (stereo not drawn) [Example 8b, N-Hydroxy-N-{1-[3-(4-fluorophenylethynyl)-phenyl]-ethyl}-urea] | – | 99% | – | – | – | – |
| COc1ccc(C#Cc2cccc(CN(O)C(C)=O)c2)cc1 [Example 4, N-[3-(4-Methoxy-phenylethynyl)-benzyl]-acetohydroxamic acid] | – | – | – | – | 87% | 81% |
| COc1ccccc1C#Cc1cccc(C(C)N(O)C(N)=O)c1 (stereo not drawn) [Example 10g, N-Hydroxy-N-{1-[3-(2-methoxy-phenylethynyl)-phenyl]-ethyl}-urea] | 270000 nM | – | 320 nM | 844 | – | – |
